In ChEMBL document CHEMBL1201862, “PubChem BioAssay data set” (2004):
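The compound was tested at five concentrations on cells cultured in 96-well plates, with a 48-hour exposure period. At the GI50, growth is halved.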 Active and inactive are the calls of the source. Rule as the data show it: active = GI50 up to about 1.1 µM and inactive = higher. Non-standard residues stand in square brackets, D forms with d. Residues, ends and D or L forms follow the SMILES beside them. ξ: configuration not given here. Pen = CC(C)(S)[C@H](N)C(=O)O; ξL = CC(C)CC(N)C(=O)O

Assays:
Assay in all cases: growth of human tumour cells (NCI), 48 h
786-0 = test system: 786-0
HOP-18 = test system: HOP-18
SNB-78 = test system: SNB-78
KM-20L2 = test system: KM-20L2
XF498 = test system: XF498
DMS-273 = test system: DMS-273
M19-MEL = test system: M19-MEL
LXFL 529 = test system: LXFL 529
RXF 631 = test system: RXF 631

| Structure (SMILES) | GI50 (786-0) | GI50 (HOP-18) | GI50 (SNB-78) | GI50 (KM-20L2) | GI50 (XF498) | GI50 (DMS-273) | GI50 (M19-MEL) | GI50 (LXFL 529) | GI50 (RXF 631) |
| --- | --- | --- | --- | --- | --- | --- | --- | --- | --- |
| Cc1cccc(C)c1NC(=O)Nc1ccc(S(N)(=O)=O)cc1 | > 100 µM (inactive) | – | – | – | – | – | – | – | – |
| Cc1ccc(S(=O)(=O)NC(=O)OC23COCN2COC3)cc1 | > 100 µM (inactive) | – | – | – | – | – | – | – | – |
| CN(C)CCNC(=O)c1cc(Cl)cc2cc3ccccc3nc12 | – | 6.44 µM (inactive) | 1.97 µM (inactive) | 0.422 µM (active) | 0.966 µM (active) | 0.733 µM (active) | 1.3 µM (inactive) | – | – |
| CCOC(=O)/C=C/c1c[nH]c(C(=O)OCC)c1 | – | > 100 µM (inactive) | > 86.1 µM (inactive) | > 100 µM (inactive) | > 95.1 µM (inactive) | > 100 µM (inactive) | > 100 µM (inactive) | – | – |
| O=C(OCc1ccccc1)OOC(=O)OCc1ccccc1 | – | – | > 100 µM (inactive) | > 100 µM (inactive) | – | – | > 100 µM (inactive) | > 100 µM (inactive) | – |
| C=C1C[C@@H](O)C[C@@]2(C)C[C@@H]3OC(=O)C(=C)[C@@H]3C[C@H]12 | – | 3.98 µM (inactive) | 7.69 µM (inactive) | 5.83 µM (inactive) | 0.678 µM (active) | 5.35 µM (inactive) | 20.4 µM (inactive) | – | – |
| COC(=O)C1C(O)C(C)C(O)C(C)(O)/C=C\C=C(C)C(=O)Nc2c(C)c(OC(C)=O)c3c(c2O)C(=O)C(C)=C2OCOC(=C23)C(C)=CC(C)(O)C(O)C(C)C1OC(C)=O (stereo not drawn) | – | 93.1 µM (inactive) | 44.6 µM (inactive) | 33.7 µM (inactive) | – | 44 µM (inactive) | 17.3 µM (inactive) | – | – |
| CC[C@H]1CN2CCc3cc(OC)c(OC)cc3[C@@H]2C[C@@H]1C[C@H]1NCCc2cc(O)c(OC)cc21 | – | – | – | 0.025 µM (active) | – | 0.0344 µM (active) | 0.0253 µM (active) | – | – |
| COC(=O)C(Cc1ccc(N(C)C)cc1)(NC(=O)c1ccccc1)P(=O)(OC)OC (stereo not drawn) | – | – | – | > 100 µM (inactive) | > 100 µM (inactive) | > 100 µM (inactive) | > 100 µM (inactive) | > 100 µM (inactive) | – |
| COc1ccc(C(=C2C(=O)N(c3ccccc3)C(=O)C2=C(C)C)c2ccc(OC)cc2)cc1 | 3.43 µM (inactive) | – | – | – | – | – | – | – | – |
| O=C1C=C/C(=C/[C@H]2SSC=C[C@]23C=CC(=O)C3)C1 | 7.55 µM (inactive) | – | – | – | – | – | – | – | – |
| Cc1ccc(C(=O)Cc2nc3c([nH]c2=O)c(C)nn3-c2ccccc2)c(C)c1 | 3.55 µM (inactive) | – | – | – | – | – | – | – | – |
| COc1ccc(/C=C2\C[C@H]3[C@@H]4CCC5=C/C(=N/O)CC[C@]5(C)[C@H]4CC[C@]3(C)\C2=N\O)cc1OC | 17.8 µM (inactive) | – | – | – | – | – | – | – | – |
| CCOC(=O)CNC(=O)NC12CC3CC(CC(C3)C1)C2 | – | 161 µM (inactive) | 221 µM (inactive) | 237 µM (inactive) | 22.1 µM (inactive) | 223 µM (inactive) | 111 µM (inactive) | – | – |
| COc1cccc(N2C(=O)CSC2c2cccc(Oc3ccccc3)c2)c1 (stereo not drawn) | 6.47 µM (inactive) | – | – | – | – | – | – | – | – |
| Cc1ccnc2nc(N)ccc12 | > 100 µM (inactive) | – | – | – | – | – | – | – | – |
| C=CCc1cccc2cc(C(=O)Nc3ccc(C)cc3)c(=N)oc12 | > 100 µM (inactive) | – | – | – | – | – | – | – | – |
| CCCCCCSc1nc(N)nc2nc[nH]c12 | – | – | 38.5 µM (inactive) | 39.7 µM (inactive) | 32.5 µM (inactive) | 43.7 µM (inactive) | 47.1 µM (inactive) | – | – |
| c1ccc2c(c1)SCCc1cn[nH]c1-2 | – | > 100 µM (inactive) | > 100 µM (inactive) | > 100 µM (inactive) | > 100 µM (inactive) | > 100 µM (inactive) | > 100 µM (inactive) | – | – |

| Structure (SMILES) | GI50 (786-0) | GI50 (HOP-18) | GI50 (SNB-78) | GI50 (KM-20L2) | GI50 (XF498) | GI50 (DMS-273) | GI50 (M19-MEL) | GI50 (LXFL 529) | GI50 (RXF 631) |
| --- | --- | --- | --- | --- | --- | --- | --- | --- | --- |
| O=C(CC/C=C(/CS(=O)(=O)c1ccccc1)S(=O)(=O)c1ccccc1)c1ccccc1 | – | > 100 µM (inactive) | – | > 100 µM (inactive) | 95.9 µM (inactive) | > 100 µM (inactive) | – | – | – |
| CC(=O)OCC1OC(Nc2ncc(-c3ccc(C)cc3)s2)C(OC(C)=O)C(OC(C)=O)C1OC(C)=O (stereo not drawn) | – | 35.8 µM (inactive) | 40.8 µM (inactive) | – | – | > 58.9 µM (inactive) | 18.8 µM (inactive) | – | – |
| CN(C)CCOc1cc2c(c3ccccc13)-c1ccccc1C2=O | – | 2.07 µM (inactive) | 6.03 µM (inactive) | 2.1 µM (inactive) | 1.6 µM (inactive) | 0.531 µM (active) | 1.35 µM (inactive) | – | – |
| COc1ccc2c(c1)c1c(n2CCN(C)C)-c2ccccc2CC1 | 16.1 µM (inactive) | – | – | – | – | – | – | – | – |
| C[Si](C)(C)/C(I)=C/CO | 37.3 µM (inactive) | 32 µM (inactive) | 28.6 µM (inactive) | 20.5 µM (inactive) | 13.6 µM (inactive) | 20.6 µM (inactive) | 20.8 µM (inactive) | 34.6 µM (inactive) | 26.4 µM (inactive) |
| O=C1C2C3C=C4c5ccccc5N(c5ccccc5)C4(C2C(=O)N1Cc1ccccc1)C1C(=O)N(Cc2ccccc2)C(=O)C31 (stereo not drawn) | > 100 µM (inactive) | > 100 µM (inactive) | > 100 µM (inactive) | > 100 µM (inactive) | 96.2 µM (inactive) | – | 70.3 µM (inactive) | > 100 µM (inactive) | > 100 µM (inactive) |
| C[n+]1[se]c2ccccc2c1Cl | > 45 µM (inactive) | 20.7 µM (inactive) | 27.8 µM (inactive) | > 51.1 µM (inactive) | 37.2 µM (inactive) | 20 µM (inactive) | 10.3 µM (inactive) | 28.1 µM (inactive) | 25.1 µM (inactive) |
| C=CC1(c2ccccc2Cl)N/C(=C/OCC)CO1 (stereo not drawn) | 51.5 µM (inactive) | > 100 µM (inactive) | > 100 µM (inactive) | > 100 µM (inactive) | > 100 µM (inactive) | > 100 µM (inactive) | > 100 µM (inactive) | > 100 µM (inactive) | > 100 µM (inactive) |
| CC1(C)CN=C(Nc2ccc(F)cc2)S1 | > 100 µM (inactive) | – | – | – | – | – | – | – | – |
| Cc1cc(=O)n2nc(CCl)sc2n1 | 15.7 µM (inactive) | – | – | – | – | – | – | – | – |
| Cc1cc(O)c2c(c1O)C(=O)C13C(=C(O)C4C(O)C1C1C(O)C3C(O)=C3C(=O)c5c(O)cc(C)c(O)c5C(=O)C341)C2=O (stereo not drawn) | – | 0.0615 µM (active) | 0.0803 µM (active) | 4.28 µM (inactive) | 0.134 µM (active) | 0.0962 µM (active) | 0.0545 µM (active) | – | – |
| O=C(O)C(F)(F)C(F)(F)C(F)(F)C(F)(F)C(F)(F)C(F)(F)C(F)(F)C(F)(F)F | 83.9 µM (inactive) | – | – | – | – | – | – | – | – |
| COC(=O)C(/C(=N/NC(N)=S)C(=O)Nc1ccccc1[N+](=O)[O-])c1cnc2ccccc2n1 (stereo not drawn) | > 100 µM (inactive) | > 100 µM (inactive) | > 100 µM (inactive) | > 100 µM (inactive) | > 100 µM (inactive) | > 100 µM (inactive) | > 100 µM (inactive) | > 100 µM (inactive) | > 100 µM (inactive) |
| Cc1cc(=O)nc(S(=O)(=O)NC(=S)Nc2ccc(Cl)cc2)[nH]1 | > 100 µM (inactive) | – | – | – | – | – | – | – | – |
| CC12CCC(=O)[C@@]1(C)CCCC2O (stereo partly drawn) | > 100 µM (inactive) | – | – | – | – | – | – | – | – |
| C[S+](C)CC1OC(n2cnc3c(N)ncnc32)C(O)C1O (stereo not drawn) | – | – | > 225 µM (inactive) | > 225 µM (inactive) | > 225 µM (inactive) | > 225 µM (inactive) | > 179 µM (inactive) | – | – |
| O=C(O)c1ccc(C(=O)O)c2c(C(=O)O)ccc(C(=O)O)c12 | > 100 µM (inactive) | – | – | – | – | – | – | – | – |
| CSCC[C@H](NC(=O)C(CC(C)C)NC(=O)[C@H](Cc1c[nH]cn1)NC(=O)CNC(=O)[C@@H](NC(=O)[C@@H](C)NC(=O)[C@H](Cc1c[nH]c2ccccc12)NC(=O)[C@H](CCC(N)=O)NC(=O)[C@@H](N)CC(N)=O)C(C)(C)SC)C(N)=O (stereo partly drawn) (H-NQW[dA][Pen](Me)GH[ξL]M-NH2) | – | > 100 µM (inactive) | > 100 µM (inactive) | > 100 µM (inactive) | > 100 µM (inactive) | > 100 µM (inactive) | > 100 µM (inactive) | – | – |
